In ChEMBL document CHEMBL1155839, “Exploring 9-benzyl purines as inhibitors of glutamate racemase (MurI) in Gram-positive bacteria” (Bioorg Med Chem Lett, 2008):
≈ marks a conversion by molar mass, not a printed value.

How the values were obtained:
Enterococcus faecium = test: Antibacterial activity against Enterococcus faecium; type: functional
[1] = Solubility by nephelometry; type: physicochemical
[2] = Inhibition of Staphylococcus aureus MurI
Enterococcus faecalis = test: Antibacterial activity against Enterococcus faecalis; type: functional
Glutamate racemase = target: T1, Glutamate racemase (Enterococcus faecalis (strain ATCC 700802 / V583), UniProt Q836J0); test: Inhibition of Enterococcus faecalis MurI
T1 sequence (Q836J0 whole entry): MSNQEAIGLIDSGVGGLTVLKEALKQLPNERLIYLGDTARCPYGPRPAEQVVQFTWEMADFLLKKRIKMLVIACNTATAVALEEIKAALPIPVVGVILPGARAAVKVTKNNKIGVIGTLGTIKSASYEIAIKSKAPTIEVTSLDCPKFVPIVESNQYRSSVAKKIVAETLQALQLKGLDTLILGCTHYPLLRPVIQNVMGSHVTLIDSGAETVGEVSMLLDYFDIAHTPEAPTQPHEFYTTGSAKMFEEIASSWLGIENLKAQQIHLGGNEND

Staphylococcus aureus = test: Antibacterial activity against Staphylococcus aureus; type: functional
[3] = Inhibition of Enterococcus faecium MurI

MIC (Enterococcus faecium) [µg/mL]	solubility kinetic [1] [µM]	IC50 [2] [µM]	MIC (Enterococcus faecalis) [µg/mL]	IC50 (Glutamate racemase) [µM]	MIC (Staphylococcus aureus) [µg/mL]	IC50 [3] [µM]	Structure (SMILES)
16 (≈ 48.1 µM)	100 (≈ 33.2 µg/mL)	> 400	16 (≈ 48.1 µM)	26.1	16 (≈ 48.1 µM)	42.5	CCCCNc1nc(N)c2ncn(Cc3c(F)cccc3F)c2n1
16 (≈ 45.8 µM)	200 (≈ 69.9 µg/mL)	> 400	16 (≈ 45.8 µM)	38.1	16 (≈ 45.8 µM)	97.8	CCCCOc1nc(N)c2[nH]c(=O)n(Cc3c(F)cccc3F)c2n1
16 (≈ 45.8 µM)	50 (≈ 17.5 µg/mL)	> 400	16 (≈ 45.8 µM)	4.1	16 (≈ 45.8 µM)	6	CCCCSc1nc(N)c2ncn(Cc3c(F)cccc3F)c2n1
16 (≈ 41.7 µM)	25 (≈ 9.6 µg/mL)	> 400	16 (≈ 41.7 µM)	2.2	16 (≈ 41.7 µM)	2.6	CCCCSc1nc(N)c2ncn(Cc3c(F)ccc(Cl)c3F)c2n1
16 (≈ 43.9 µM)	100 (≈ 36.4 µg/mL)	> 400	16 (≈ 43.9 µM)	11.5	16 (≈ 43.9 µM)	3.75	CCCCSc1nc2c(ncn2Cc2c(F)ccc(C)c2F)c(=O)[nH]1
16 (≈ 36.6 µM)	3.1 (≈ 1.36 µg/mL)	> 400	16 (≈ 36.6 µM)	> 400	16 (≈ 36.6 µM)	> 400	CCCCOc1nc(NCc2ccccc2)c2ncn(Cc3c(F)ccc(C)c3F)c2n1
16 (≈ 35.4 µM)	25 (≈ 11.3 µg/mL)	> 400	16 (≈ 35.4 µM)	4.3	16 (≈ 35.4 µM)	4.4	CCC(Oc1nc(N)c2ncn(Cc3c(F)ccc(C)c3F)c2n1)C(F)(F)C(F)(F)F (stereo not drawn)
16 (≈ 42.5 µM)	100 (≈ 37.6 µg/mL)	> 400	16 (≈ 42.5 µM)	167	16 (≈ 42.5 µM)	> 400	CC(=O)NC(C)Oc1nc(N)c2ncn(Cc3c(F)ccc(C)c3F)c2n1 (stereo not drawn)
16 (≈ 44.6 µM)	42 (≈ 15.1 µg/mL)	> 400	16 (≈ 44.6 µM)	9.4	16 (≈ 44.6 µM)	17.7	CCCCSc1nc(N)c2ncn(Cc3cccc([N+](=O)[O-])c3)c2n1
16 (≈ 44 µM)	25 (≈ 9.09 µg/mL)	> 400	16 (≈ 44 µM)	5.4	16 (≈ 44 µM)	6.5	CCCCSc1nc(N)c2ncn(Cc3c(F)ccc(C)c3F)c2n1
16 (≈ 43.4 µM)	50 (≈ 18.4 µg/mL)	> 400	16 (≈ 43.4 µM)	1	16 (≈ 43.4 µM)	1.8	CCCCSc1ncc2ncn(Cc3c(F)ccc(Cl)c3F)c2n1
16 (≈ 41.2 µM)	25 (≈ 9.71 µg/mL)	> 400	16 (≈ 41.2 µM)	1.4	16 (≈ 41.2 µM)	2.5	CCCCSc1nc(N)c2ncn(Cc3cc([N+](=O)[O-])ccc3OC)c2n1
16 (≈ 46.1 µM)	100 (≈ 34.7 µg/mL)	> 400	16 (≈ 46.1 µM)	5.5	16 (≈ 46.1 µM)	13.9	CCCCOc1nc(NC)c2ncn(Cc3c(F)cccc3F)c2n1
16 (≈ 35.8 µM)	200 (≈ 89.3 µg/mL)	> 400	16 (≈ 35.8 µM)		16 (≈ 35.8 µM)	5.5	CCCCOc1nc(NCCN2CCOCC2)c2ncn(Cc3c(F)cccc3F)c2n1
16 (≈ 46.1 µM)	50 (≈ 17.4 µg/mL)	> 400	16 (≈ 46.1 µM)	9.8	16 (≈ 46.1 µM)	27	CCCCOc1nc(N)c2ncn(Cc3c(F)ccc(C)c3F)c2n1
16 (≈ 45.7 µM)	50 (≈ 17.5 µg/mL)	> 400	16 (≈ 45.7 µM)	4.3	16 (≈ 45.7 µM)	6.2	CCCCSc1nc(N)c2nnn(Cc3c(F)cccc3F)c2n1

Structure (SMILES)	MIC (Enterococcus faecium) [µg/mL]	solubility kinetic [1] [µM]	IC50 [2] [µM]	MIC (Enterococcus faecalis) [µg/mL]	IC50 (Glutamate racemase) [µM]	MIC (Staphylococcus aureus) [µg/mL]	IC50 [3] [µM]
CCCCOc1nc(NCc2cccnc2)c2ncn(Cc3c(F)ccc(Cl)c3F)c2n1	16 (≈ 34.9 µM)	18 (≈ 8.26 µg/mL)	> 400	16 (≈ 34.9 µM)	2	16 (≈ 34.9 µM)	2.7
